Like-named read-outs stand apart in the source and are kept apart here.
What was measured:
Neutrophil Lipoxygenase = target: T1, Neutrophil Lipoxygenase (Cavia porcellus, UniProt A0A286X958); test: Inhibition of neutrophil lipoxygenase (release and biosynthesis of LTB4 and 5-HETE) in guinea pig peritoneal neutrophils; assay type: cell-based; conditions: 10 μg/ml, 100 μM arachidonic acid and 20 μM A23187, the lower the percentage, the more active
T1 construct: endogenous in cells; host or cells: guinea pig peritoneal neutrophils
T1 sequence (A0A286X958 1-674): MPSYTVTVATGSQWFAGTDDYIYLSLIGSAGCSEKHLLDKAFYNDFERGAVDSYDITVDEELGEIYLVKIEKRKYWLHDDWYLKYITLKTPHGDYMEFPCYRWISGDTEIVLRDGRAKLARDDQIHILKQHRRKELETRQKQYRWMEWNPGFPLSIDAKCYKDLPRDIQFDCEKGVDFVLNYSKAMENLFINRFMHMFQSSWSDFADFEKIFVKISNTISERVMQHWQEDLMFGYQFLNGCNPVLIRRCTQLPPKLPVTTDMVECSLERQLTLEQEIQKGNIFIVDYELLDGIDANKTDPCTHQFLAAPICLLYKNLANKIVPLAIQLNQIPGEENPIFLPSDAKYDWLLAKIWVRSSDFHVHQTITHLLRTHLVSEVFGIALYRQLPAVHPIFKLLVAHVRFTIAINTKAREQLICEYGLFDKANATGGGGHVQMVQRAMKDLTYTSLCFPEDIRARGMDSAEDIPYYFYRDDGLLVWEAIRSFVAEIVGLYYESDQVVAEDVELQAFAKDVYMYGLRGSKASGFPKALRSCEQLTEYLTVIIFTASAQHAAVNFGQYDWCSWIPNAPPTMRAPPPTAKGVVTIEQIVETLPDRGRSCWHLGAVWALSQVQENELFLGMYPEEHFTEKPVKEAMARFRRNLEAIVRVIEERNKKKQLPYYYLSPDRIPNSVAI
Protocol: The ability of these compounds to inhibit lipoxygenase activity in terms of the suppression of the release and biosynthesis of leukotriene B4 (LTB4) and 5-hydroxyeicosatetraenoic acid (5-HETE) was measured as follows.
In this assay 3×10^7 peritoneal neutrophils derived from guinea pigs were incubated at 37° C. in Dulbeccos buffer containing 50 mM tris buffer (pH 7.4). Five minutes before the addition of 100 μM arachidonic acid and 20 μM calcium ionophore (A23187), control vehicle or the test compounds were added to the neutrophils at a concentration of 10 μg/ml.
Three minutes after the addition of arachidonic acid and calcium ionophore the total lipid was partitioned into chloroform after adjusting the pH to 3 with citric acid and the addition of equal parts of methanol and chloro-form.
The 5-HETE and LTB4 were resolved by HPLC using a 5 μM, 4×25 cm octadecyl silica solumn (IBM Instruments) with 70-80% methanol in water adjusted to pH 3.0 with acetic acid. As the mobile phase was pumped at 1.0 ml/minute, LTB4 and 5-HETE were detected by absorbance at 270 and 236 nm, respectively.
LTB4 and 5-HETE were quantitated by comparison with the control and results were expressed as a percent of control.

[1] = tested on: Immunologically Stimulated Human Basophils; test: Inhibition of histamine release from immunologically stimulated human basophils; assay type: cell-based; conditions: 1 h; human basophils challenged with anti-IgE or antigen, 60 minutes at 37° C.; linear regression; active if ED50 ≤48 μM; read-out: ED50 (concentration which causes a 50% inhibition of histamine release)
Protocol: The novel compounds of this invention have been tested by the procedure of Lichtenstein, L. M. and Osler, A. G., J. Exp. Med., 120, 507-530 (1964), which evaluates the ability of compounds to inhibit mediator (histamine) release from immunologically stimulated human basophils.
Dissolve 140.3 g of sodium chloride, 7.45 g of potassium chloride and 74.5 g of Trizma-Tris Pre-Set, Reagent Grade, pH 7.6, at 25° C. (Sigma Chemical Co.) in sufficient water to give a final volume of 2 liters.
(Sigma Chemical Co.) (30 mg/ml)
Made to 0.75M and 0.5M respectively, with calcium chloride dihydrate and magnesium chloride hexahydrate.
A 10 ml portion of 10X Tris Buffer and 1.0 ml of human albumin are diluted to 100 ml with water.
A 10 ml portion of 10X Tris Buffer, 1.0 ml of human albumin, 0.8 ml of calcium stock and 0.2 ml of magnesium stock are diluted to 100 ml with water.
Behring Diagnostics (Generally used at 10 μg protein/ml final concentration).
Strength 1:100 (w:v) allergenic extract, Hollister-Stier Labs. Generally this is diluted 1:1000 to 1:10,000 (considering the vial as stock).
Intradermal solutions or intramuscular preparations for hyposensitization, Hollister-Stier Labs. The final concentration used is on the order of 1 PNU/ml.
Eighty milliliters of blood is withdrawn from subjects with known histamine release to anti-Ige, rageweed antigen or other specific alergen, using four 20 ml heparainized tubes. This 80 ml of blood is mixed with 20 ml of saline containing 0.6 g of dextrose and 1.2 g of dextran. The blood is allowed to sediment at room temperature in two 50 ml polycarbonate centrifuge tubes until a sharp interface develops between the red cells and plasma (60-90 minutes). The plasma (top) layer from each tube is with-drawn by pipet and transferred to respective 50 ml polycarbonate tubes. The plasma is centrifuged for 8 minutes at 100×G at […]. The supernatant is carefully poured off as completely as possible and the cell button is resuspended in 2-3 ml of Tris-A buffer using a silconized Pasteur pipet. The resuspension is accomplished by drawing the liquid gently in an out of the pipet, with the tip below the liquid, until and even suspension of cells is obtained. Sufficient Tris-A buffer is then added to bring the volume in the tube to about 45 ml and the tube is centrifuged at 110×G for 8 minutes at 4° C. The supernatant is poured off and the cell button is resuspended and centrifuged as described above. The supernatant is poured off and the cell button suspended in 2-3 ml of Tris-ACM buffer to make the final volume sufficient to allow addition to the reaction tubes.
Reaction tubes containing anti-IgE or antigens, either alone or with test compound in a total volume of 0.2 ml are prepared and placed in a 37° C. bath. […]

Row | SMILES | remaining activity at 10 µg/mL (Neutrophil Lipoxygenase; read-out: 5-HETE, % of Control) [%] | remaining activity at 10 µg/mL (Neutrophil Lipoxygenase; read-out: LTB4, % of Control) [%] | IC50 [1] [µM]
1 | O=CN1CCN(C2=C(Cl)C(=O)c3nsnc3C2=O)CC1 [4-(6-Chloro-4,7-dihydro-4,7-dioxo-2,1,3-benzothiadiazol-5-yl)-1-piperazinecarboxaldehyde] | 64 | 90.8 | –
2 | Oc1ccc(O)c2[nH]c(-c3ccc(Cl)cc3)nc12 [2-(4-Chlorophenyl)-1H-benzimidazole-4,7-diol] | – | – | 9.7
3 | O=C1C=CC(=O)c2[nH]c(-c3ccc(Cl)cc3)nc21 [2-(4-Chlorophenyl)-1H-benzimidazole-4,7-dione] | – | – | 6.8
4 | COc1ccc(OC)c2[nH]c(-c3ccc(Cl)cc3)nc12 [2-(4-Chlorophenyl)-4,7-dimethoxy-1H-benzimidazole] | 77 | 87 | –
5 | COc1ccc(OC)c2[nH]c(-c3ccccc3)nc12 [4,7-Dimethoxy-2-phenyl-1H-benzimidazole] | 78.2 | 8 | –
6 | Oc1ccc(O)c2[nH]c(-c3ccccc3)nc12 [2-Phenyl-1 --H--benzimidazole-4,7-diol, 2-Phenyl-1H-benzimidazole-4,7-diol] | 32.1 | 33.9 | –

Second part, the compound after the results:

Row | remaining activity at 10 µg/mL (Neutrophil Lipoxygenase; read-out: 5-HETE, % of Control) [%] | remaining activity at 10 µg/mL (Neutrophil Lipoxygenase; read-out: LTB4, % of Control) [%] | IC50 [1] [µM] | SMILES
7 | 20.8 | 25.8 | – | O=C1C(Cl)=C(N2CCN(c3nc4ccccc4o3)CC2)C(=O)c2nsnc21 [5-[4-(2-Benzoxazolyl)-1-piperazinyl]-6-chloro-2,1,3-benzothiadiazole-4,7-dione]
8 | 40.5 | 39.3 | 1 | CCOC(=O)N1CCN(C2=C(Cl)C(=O)c3nsnc3C2=O)CC1 [4-(6-Chloro-4,7-dihydro-4,7-dioxo-2,1,3-benzothiadiazol-5-yl)-1-piperazinecarboxylic acid, ethyl ester]
9 | 15.2 | 14.6 | 9.1 | O=C1C(Cl)=C(N2CCN(c3cccc(C(F)(F)F)c3)CC2)C(=O)c2nsnc21 [5-Chloro-6-6[4-[3-(trifluoromethyl)phenyl]-1-piperazinyl]-2,1,3-benzothiadiazole-4,7-dione]
